Values belong to the compound of their own block, whether it stands above or below them.
Tests used:
S1P1 = molecular target: T1, S1P1 (Homo sapiens, UniProt P21453); test: S1P1 overexpression cell activity by β-arrestin assay (U2OS-EDG1); assay type: cell-based; details: U2OS-EDG1 cells
T1 construct: host or cells: U2OS (human osteosarcoma) cell line, U2OS-EDG1
Description: The following experiments were conducted to detect the activity of the compound on S1P1 overexpression cells by β-arrestin assay. [table] [table] 3. Experimental Steps Day 1: Cell Seeding Plate and Compound Treatment • (1) Firstly, the compound was diluted by a 4-fold gradient into 10 concentration points from the concentration of 10 μM in the culture plate by using NL fluid transfer system, with 2 replicates at each concentration point. • (2) Cells were resuspended by using FreeStyle™ expression medium, and the cell density was adjusted to 7,500 cells per 40 μL suspension. The samples with test concentration were added into the well of the cell culture plate, and 40 μL cell suspension was added into the corresponding well. • (3) The above cell plates were incubated overnight in a CO2 incubator with 5% (volume fraction) at 37° C. Day 2: Detection and Data Analysis • (1) The buffer solution was prepared according to the preparation method in the instructions of LiveBLAser™-fluorescence resonance energy transfer B/G loading kit. • (2) 8 μL detection reagent was added to each well, which were shaken and mixed evenly for 1 minute, centrifugated at 1,000 rpm for 10 seconds, and incubated at 23° C. in dark for 2 hours. • 3) Detection was performed by multimode reader. • 4) The PrismDemo software was used to analyze the data and fit the curve. 4. Experimental Results

[1] = test system: TNBS induced ulcerative colitis in rats; test: TNBS induced ulcerative colitis in rats; assay type: in vivo, rat; details: for Colon length / Colon weight / Colon weight/colon length / Ulcer area: day 8; for General anatomical view of colon, from excellent to poor: 7 days administration, SASP 360, Example 3 and Etrasimod 3, Ozanimod 10 mg/kg; for Drug efficacy intensity (colon weight): oral gavage for 7 consecutive days, doses as given in ranking
Description: Preparation of molding agent: 5 mL TNBS and 8.953 mL anhydrous ethanol and 26.741 sterilized water for injection. • TNBS comes from Dalian Meilun Biotechnology Co., Ltd. • Source of SPF male SD rats: Shanghai Slake Experimental Animal Co., Ltd. • Animal age at the beginning of the experiment: 8 to 10 weeks; • Animal weight at the beginning of the experiment: about 250 g; • Adaptation time: 5 to 7 days; • Animals were fasted (only water) for 24 hours. After inhalation anesthesia with isoflurane, all rats were perfused with 0.5 mL TNBS ethanol solution per rat (18 mg TNBS/rat) via rectum with latex hose, with the length of the hose entering the rectum of about 8 cm. After withdrawing the hose, the rats remained under isoflurane anesthesia, and kept in the inclined state of hip elevation for 15 minutes.
The rats after modeling were randomly divided into 5 groups: model group, positive control group using drug sulfasalazine (SASP, 360 mg/kg), test substance group using the compound of Example 3 (3 mg/kg), test substance group using Etrasimod (3 mg/kg), test substance group using Ozanimod (10 mg/kg).
At 3 hours after modeling, the animals in each group were administrated with medicine solution by oral gavage (Table 1), 5 mL/kg body weight (10 mL/kg in sulfasalazine group), once a day, for 7 consecutive days, and the feces of the animals and whether there is death were observed every day. On the 8th day, the animals were killed under CO2 overdose anesthesia followed by being dissected, the entire colon tissue was extracted, the contents of the colon were cleaned after longitudinal dissection along the mesenteric side, the colon was weighed and measured for its length, the area of the ulcer was measured, and the general situation was observed and photos were taken. Finally, the colon was fixed in 10% formalin, and H&E staining and histopathological analysis (inflammation, goblet cells, lesion depth, ulcer degree, crypt abscess) were performed.
Wherein, the compound of Example 3 of the invention, purity: 99.74%. • Etrasimod, prepared according to the literature method (the second isomer of Example 1.29 in WO2010/011316A1), purity: 98.47%. • Ozanimod, prepared according to the literature method (compound 86 in WO2011/060392A1), purity: 99.78%. • Sulfasalazine enteric-coated tablets, produced by Shanghai Fuda Pharmaceutical Co., Ltd., 0.25 g/tablet. Enteric coated tablets show yellow to brownish yellow after the coating is removed. • Solutol: Beijing Fengli Jingqiu Pharmaceutical Co., Ltd. • Solvent preparation: • DMSO, Solutol and 0.9% sodium chloride solution were mixed according to the volume ratio of 5:10:85 to prepare the solvent.
Preparation of compound of Example 3 and Etrasimod solution: 27 mg of test substances were taken respectively and dissolved in 45 mL of solvent to obtain corresponding test substance solution.
Ozanimod: 90 mg Ozanimod was dissolved in 45 mL solvent to obtain Ozanimod solution.
Preparation of SASP solution: six sulfasalazine enteric-coated tablets after grinding were added to 41.7 mL 0.5% CMC-Na, and then dissolved by ultrasonic to obtain SASP solution.
Due to the excipient factor of SASP drug preparation, the concentration should not be too high when suspended in 0.5% CMC-Na, otherwise the suspension was uneven and the mobility was poor, so the dose volume of SASP was doubled compared with the compound of Example 3 and Etrasimod.

[2] = test system: DSS induced ulcerative colitis in mice; test: DSS induced ulcerative colitis in mice; assay type: in vivo; design: key to Total stool scores: sum of shape (1-3) and bleeding (1-3) levels; normal = 1 each; details: for Weight / Total stool scores: 20 mg/kg oral gavage once a day
Description: Molecular weight of DSS dextran sodium sulfate: 36,000 to 50,000, From MP Biomedical Company.
Preparation of molding agent: preparation of 3.5% DSS: 49 g DSS plus 1,400 mL high-temperature sterilized water.
Source of SPF male C57BL/6 mice: Beijing Weitong Lihua Experimental Animal Technology Co., Ltd. • Animal age at the beginning of the experiment: 6 to 8 weeks; • Animal weight at the beginning of the experiment: 22 to 25 g; • Adaptation time: 3 to 5 days;
The mice were divided into groups according to their weight, 10 mice in each group. The mice were administrated once a day by gavage (or blank) according to the following Table 4.
Animals were given 3.5% DSS solution for free drinking water modeling (the day of modeling was recorded as day 1), and the modeling agent was replaced once every two days for 7 consecutive days, and then (day 8) 3.5% DSS was replaced with ordinary drinking water for another 1 day.
• Preparation of solvent 1: 0.66 mL DMSO, 1.32 mL Solutol and 11.22 mL Saline were mixed to prepare 13.2 mL of solvent 1; • Preparation of solvent 2: 0.3 mL DMSO, 0.6 mL Solutol and 5.1 mL Saline were mixed to prepare 6 mL of solvent 2; • Preparation of solution of compound of Example 3: 39.6 mg of compound of Example 3 was dissolved in 13.2 mL of solvent 1 to obtain the solution of compound 1 of Example 3, the solution 1 of compound of Example 3 was diluted with solvent 1 to prepare the solution of compound of Example 3 with concentrations of 2 mg/mL, 1 mg/mL, and 0.6 mg/mL; • Etrasimod solution: 6 mg of Etrasimod was dissolve in 6 mL of solvent 2 to obtain Etrasimod solution; • Ozanimod solution: 12 mg of […] was dissolved in 6 mL solvent 2 to obtain Ozanimod solution; • Note: Prepare once every two days, and store in refrigerator at 4° C.
Wherein, the purity of compound of Example 3 was 99.74%, Ozanimod and Etrasimod were prepared by the method described in Example 8, and the purities were 99.78% and 98.47% respectively.
The mouse stool was observed on its shape, bleeding condition every two days, and scored. Scoring criteria for stool condition: shape: normal (level 1), soft stool (level 2), and loose stool (level 3); traits: normal (level 1), faint redness (level 2), and bloody stool visible to the unaided eye (level 3).
After the last administration (8 consecutive days), the animals were dissected on the next day (day 9), the colon was separated, the whole colon was photographed, and the colon length was measured. Then the colon was cut longitudinally along the mesenteric side to remove the contents, which was weighed and observed on the integrity of the colonic mucosa. The colon was then fixed in 10% formalin.

[3] = 360 mg/kg oral gavage once a day for 7 days
[4] = 10 mg/kg oral gavage once a day for 7 days

T1 sequence (P21453 whole entry): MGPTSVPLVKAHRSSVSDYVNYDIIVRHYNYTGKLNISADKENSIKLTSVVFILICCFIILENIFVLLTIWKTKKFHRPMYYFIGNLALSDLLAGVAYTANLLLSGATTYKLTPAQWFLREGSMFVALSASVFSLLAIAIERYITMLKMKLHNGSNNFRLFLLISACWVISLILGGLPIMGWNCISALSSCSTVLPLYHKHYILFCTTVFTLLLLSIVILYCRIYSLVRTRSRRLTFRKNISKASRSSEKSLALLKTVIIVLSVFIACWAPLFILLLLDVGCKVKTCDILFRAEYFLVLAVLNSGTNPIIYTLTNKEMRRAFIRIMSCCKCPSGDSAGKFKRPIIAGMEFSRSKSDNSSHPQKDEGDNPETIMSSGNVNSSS

IC50 (S1P1): 175 nM
SMILES: O=C(O)Cn1ccc2cc(OCc3ccc(C4CCCC4)c(C(F)(F)F)c3)ccc21 [Compound of Example 6, 2-(5-((4-cyclopentyl-3-(trifluoromethyl)benzyl)oxy)-1H-indole-1-yl)acetic acid]

IC50 (S1P1): 0.251 nM
SMILES: O=C(O)CCCn1ccc2cc(OCc3ccc(C4CCCC4)c(C(F)(F)F)c3)cc(Cl)c21 [Compound of Example 5, 4-(7-chlorine-5-((4-cyclopentyl-3-(trifluoromethyl)benzyl)oxy)-1H-indole-1-yl)butyric acid]

IC50 (S1P1): 0.51 nM
SMILES: Cc1cc(OCc2ccc(C3CCCC3)c(C(F)(F)F)c2)cc2ccn(CCC(=O)O)c12 [Compound of Example 1, 3-(5-((4-cyclopentyl-3-(trifluoromethyl)benzyl)oxy)-7-methyl-1H-indole-1-yl)propionic acid]

SMILES: O=C(O)c1cc(/N=N/c2ccc(S(=O)(=O)Nc3ccccn3)cc2)ccc1O [SASP, Sulfasalazine]
Colon length [1, 3]: 13.89 ± 0.45 cm
Colon weight [1, 3]: 3.35 ± 0.74 g
Colon weight/colon length [1, 3]: 0.24 g/cm
Ulcer area [1, 3]: 320.23 ± 167.1 mm^2
General anatomical view of colon, from excellent to poor [1]: group using compound of Example 3>group using sulfasalazine>group using Etrasimod>group using Ozanimod
Weight ([1]; Day 1, 360 mg/kg oral gavage once a day): 250.1 ± 0.48 g
Weight ([1]; Day 2, 360 mg/kg oral gavage once a day): 226.4 ± 0.34 g
Weight ([1]; Day 3, 360 mg/kg oral gavage once a day): 227.6 ± 1.13 g
Weight ([1]; Day 4, 360 mg/kg oral gavage once a day): 231.8 ± 1.59 g
Weight ([1]; Day 5, 360 mg/kg oral gavage once a day): 238.6 ± 1.83 g
Weight ([1]; Day 6, 360 mg/kg oral gavage once a day): 247.3 ± 1.91 g
Weight ([1]; Day 7, 360 mg/kg oral gavage once a day): 255 ± 2.01 g
Weight ([1]; Day 8, 360 mg/kg oral gavage once a day): 267.9 ± 1.9 g
Weight course compared with model group ([1]; SASP 360 mg/kg, Example 3 and Etrasimod 3 mg/kg, oral once a day): a certain tendency to inhibit the weight loss
Drug efficacy intensity (colon weight) [1]: group using the compound of Example 3 (3 mg/kg)>group using Etrasimod (3 mg/kg)>group using sulfasalazine (360 mg/kg)>model group>group using Ozanimod (10 mg/kg)

IC50 (S1P1): 1.73 nM
SMILES: Cc1cc(OCc2ccc(C3CCCC3)c(C(F)(F)F)c2)cc2ccn(CCCC(=O)O)c12 [Compound of Example 4, 4-(5-((4-cyclopentyl-3-(trifluoromethyl)benzyl)oxy)-7-methyl-1H-indole-1-yl)butyric acid]

IC50 (S1P1): 3.27 nM
SMILES: CCc1cc(OCc2ccc(C3CCCC3)c(C(F)(F)F)c2)cc2ccn(CCC(=O)O)c12 [Compound of Example 2, 3-(5-((4-cyclopentyl-3-(trifluoromethyl)benzyl)oxy)-7-ethyl-1H-indole-1-yl)propionic acid]

SMILES: CC(C)Oc1ccc(-c2nc(-c3cccc4c3CC[C@@H]4NCCO)no2)cc1C#N [Ozanimod, reference compound]
Colon length compared with model group ([2]; 20 mg/kg): longer than that of the model group
Colon weight ([2]; 20 mg/kg oral gavage once a day for 8 days, day 9): 0.157 ± 0.01 g
Effect on blood stool and loose stool compared with model group ([2]; 20 mg/kg, day 9): had not significant improvement
Weight ([2]; Day 1): 21.2 ± 0.19 g
Weight ([2]; Day 2): 21.7 ± 0.25 g
Weight ([2]; Day 3): 21.7 ± 0.26 g
Weight ([2]; Day 4): 21.9 ± 0.33 g
Weight ([2]; Day 5): 21.5 ± 0.27 g
Weight ([2]; Day 6): 20.6 ± 0.54^ g
Total stool scores ([2]; Day 7): 5.9 ± 0.11
Weight ([2]; Day 7): 18.9 ± 0.54 g
Total stool scores ([2]; Day 8): 6.0 ± 0
Weight ([2]; Day 8): 18.0 ± 0.5 g
Total stool scores ([2]; Day 9): 5.1 ± 0
Weight ([2]; Day 9): 16.5 ± 0.49 g
Number of dead animals ([2]; by the end of the test period, 10 mice per group, doses as Table 4 (Ozanimod 20 mg/kg)): 3
Colon length [1, 4]: 13.09 ± 0.5 cm
Colon weight [1, 4]: 3.30 ± 0.53 g
Colon weight/colon length [1, 4]: 0.25 g/cm
Ulcer area [1, 4]: 498.04 ± 202.49 mm^2
General anatomical view of colon, from excellent to poor [1]: group using compound of Example 3>group using sulfasalazine>group using Etrasimod>group using Ozanimod
Weight ([1]; Day 1, 10 mg/kg oral gavage once a day): 247.1 ± 0.64 g
Weight ([1]; Day 2, 10 mg/kg oral gavage once a day): 225.6 ± 0.65 g
Weight ([1]; Day 3, 10 mg/kg oral gavage once a day): 225.1 ± 0.86 g
Weight ([1]; Day 4, 10 mg/kg oral gavage once a day): 225.9 ± 1.39 g
Weight ([1]; Day 5, 10 mg/kg oral gavage once a day): 231.3 ± 1.63 g
Weight ([1]; Day 6, 10 mg/kg oral gavage once a day): 239 ± 1.72 g
Weight ([1]; Day 7, 10 mg/kg oral gavage once a day): 247.8 ± 1.74 g
Weight ([1]; Day 8, 10 mg/kg oral gavage once a day): 262.8 ± 1.22 g
Drug efficacy intensity (colon weight) [1]: group using the compound of Example 3 (3 mg/kg)>group using Etrasimod (3 mg/kg)>group using sulfasalazine (360 mg/kg)>model group>group using Ozanimod (10 mg/kg)

From patent US12486229B2, “Indole derivative and application thereof” (SHANGHAI MEDICILON INC., priority 2020, dated 2025)
